{"source": "patent US11059815B2", "about": "“Synthesis of small molecule histone deacetylase 6 degraders, compounds formed thereby, and pharmaceutical compositions containing them” (Wisconsin Alumni Research Foundation, priority 2018, dated 2021)", "target": "T1, HDAC6 (Homo sapiens, UniProt Q9UBN7)", "T1 construct": "endogenous in cells; host or cells: MM1S (ATCC CRL-2974)", "T1 sequence (Q9UBN7 1-1215)": "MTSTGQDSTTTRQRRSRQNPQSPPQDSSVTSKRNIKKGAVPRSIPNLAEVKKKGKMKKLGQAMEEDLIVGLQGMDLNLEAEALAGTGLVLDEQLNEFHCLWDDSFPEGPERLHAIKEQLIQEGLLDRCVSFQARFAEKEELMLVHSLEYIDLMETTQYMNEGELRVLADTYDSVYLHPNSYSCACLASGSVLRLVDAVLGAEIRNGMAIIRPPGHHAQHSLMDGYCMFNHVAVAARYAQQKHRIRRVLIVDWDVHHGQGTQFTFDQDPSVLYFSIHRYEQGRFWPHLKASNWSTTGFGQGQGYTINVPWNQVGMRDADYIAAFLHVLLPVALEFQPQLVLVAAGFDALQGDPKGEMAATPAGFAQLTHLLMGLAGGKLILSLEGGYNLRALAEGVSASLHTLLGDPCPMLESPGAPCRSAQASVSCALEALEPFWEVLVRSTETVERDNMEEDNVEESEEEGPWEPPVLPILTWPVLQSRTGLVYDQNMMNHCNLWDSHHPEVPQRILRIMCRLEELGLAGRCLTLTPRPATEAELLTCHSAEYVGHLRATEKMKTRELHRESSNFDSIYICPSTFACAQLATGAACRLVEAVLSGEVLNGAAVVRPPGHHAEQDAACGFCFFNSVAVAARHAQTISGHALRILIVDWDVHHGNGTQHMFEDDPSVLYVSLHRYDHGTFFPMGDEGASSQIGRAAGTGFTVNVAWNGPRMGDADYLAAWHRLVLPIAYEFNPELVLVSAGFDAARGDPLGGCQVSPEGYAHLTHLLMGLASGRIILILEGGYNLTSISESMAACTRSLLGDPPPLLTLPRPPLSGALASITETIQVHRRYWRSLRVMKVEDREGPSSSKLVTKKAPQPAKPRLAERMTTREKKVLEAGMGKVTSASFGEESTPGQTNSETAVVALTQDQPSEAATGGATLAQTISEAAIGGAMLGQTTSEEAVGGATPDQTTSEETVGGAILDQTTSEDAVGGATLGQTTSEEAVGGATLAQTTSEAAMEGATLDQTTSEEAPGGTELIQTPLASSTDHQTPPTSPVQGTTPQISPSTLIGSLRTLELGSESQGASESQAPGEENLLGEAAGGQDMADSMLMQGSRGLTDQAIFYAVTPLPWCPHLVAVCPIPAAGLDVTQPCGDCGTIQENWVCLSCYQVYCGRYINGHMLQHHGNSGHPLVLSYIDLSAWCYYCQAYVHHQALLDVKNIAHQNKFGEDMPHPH", "test": "Western blot of HDAC6 in MM1S cells", "assay_type": "cell-based", "settings": "for HDAC6 degradation activity of negative controls by western blot: data not shown", "description": "FIGS. 10A and 10B are western blot analysis of MM1S cells treated with selected candidates from C4-lined series (FIG. 10A) and C5-lined series (FIG. 10B) for 6 h.\nFIGS. 12A, 12B, and 12C are a series of western blots showing that degrader 12d selectively promotes HDAC6 degradation in MM1S cells.\nFIGS. 13A and 13B are western blot analysis of MM1S cells with pre-treatment of E3 ligase ligand pomalidomide, HDAC6 inhibitor Next-A or NAE inhibitor MLN 4924 (FIG. 13A) or pre-treatment of proteasome inhibitor MG132 or Bortezomib (FIG. 13B) or vehicle (DMSO) for 1 h and it is followed by the treatment of 100 nM 2d or vehicle (DMSO) for 6 h.\nFIG. 16 is a western blot of selected candidate compounds having longer linkers. MM1S cells were treated with 100 nM degraders for 6 hours and analyzed by western blot.\nSee FIG. 10A and FIG. 10B to confirm the ELISA results. Class II HDAC4 was selected for comparison. For selected compounds from C4- or C5-linked series, all of them presented maximal effects at 100 nM and degraded significant amount of HDAC6 at 10 nM. […] The results from Western blot are consistent with the screening results by ELISA.\nTo evaluate the activity and selectivity of 12d, a full dose response experiment was performed with compound concentrations ranging from 0.3 nM to 10 μM in MM1S cells (FIG. 12A) for several HDACs, IKZFs, and Ac-tubulin. […] Degrader 12d reduced HDAC6 protein content at as low as 3 nM and achieved maximal effects around 30 nM. […] See Douglass et al. 2013, supra. The degradation of IKZFs started from 30 nM and was dose-dependent. It is interesting to see the more efficient degradation of HDAC6, which requires the formation of ternary complex, than that of IKZFs, which only requires the formation of binary complex. In addition to the distinct mechanism, the different turnover rates of HDAC6 and IKZFs may also contribute to the observed results. The acetylated tubulin level was also dose-dependent. At higher concentrations (3 μM and 10 μM), tubulin acetylation was not […] in response to recovered HDAC6 expression by “hook effect”. The elevated tubulin acetylation at higher concentrations was likely due to the combination of HDAC6 degradation and HDAC6 inhibition.\nTo probe the efficiency of 12d, MM1S was treated with 100 nM 12d and the change of HDAC6 protein level was monitored by time. The HDAC6 degradation started around 1 h and reached maximal degradation effect at 4 h. The degradation of IKZFs was only observed after 4 h. Meanwhile, HDAC1 was not affected and the acetylation of tubulin was accumulated by time. To study the re-synthesis rate of HDAC6 after degradation, “wash-out” experiments were performed (data not shown). Cells were treated with 100 nM 12d for 6 h and then washed with PBS to remove remaining degraders. HDAC6 expression was monitored for 48 h. […] Selected degraders were also tested in other cell lines and they are effective among all tested cancer cell lines.\nTo support the involvement of ubiquitination-proteasome system for the decrease of HDAC6 protein level, the degrader was co-treated with binding competitors or pathway blockers. […] Moreover, it also confirmed the role of the pomalidomide moiety in modulating IKZFs. […] Additionally, proteasome inhibitor MG132 and Bortezomib were used to block the down-stream proteasome degradation. […] Acetylated tubulin level was suppressed as well. This confirms that HDAC6 degradation is responsible for the acetylation of its substrates rather than inhibition by the “warhead” moiety. To exclude the possible transcriptional impact by degraders, qRT-PCR was used to examine the mRNA level of HDAC6 and related genes (data not shown). […] This is consistent with the hypothesis that the cellular knockdown of HDAC6 is due to direct protein degradation, not by transcriptional downregulation. […]", "key": {"[1]": {"settings": "1 h pre-treatment, then 100 nM degrader 6 h, MM1S"}, "[2]": {"settings": "12d dose response 0.3 nM to 10 μM, MM1S"}}, "note": "“Also recorded” adds a separate entry of the source.", "data": [{"smiles": "CCCCN(Cc1ccc(C(=O)OC)cc1)C(=O)Nc1ccc(OCCCCCn2cc(CNc3cccc4c3C(=O)N(C3CCC(=O)NC3=O)C4=O)nn2)cc1", "note": "(centres unmarked) [Compound 13, Methyl 4-((1-butyl-3-(4-((5-(4-(((2-(2,6-dioxopiperidin-3-yl)-1,3-dioxoisoindolin-4-yl)amino)methyl)-1H-1,2,3-triazol-1-yl)pentyl)oxy)phenyl)ureido)methyl)benzoate]", "values": [{"measurement": "HDAC6 degradation activity of negative controls by western blot", "setting": "MM1S", "value": "inactive; also recorded: limited HDAC6 degradation"}]}, {"smiles": "CCCCN(Cc1ccc(C(=O)NO)cc1)C(=O)Nc1ccc(OCCCCCn2cc(CNc3cccc4c3C(=O)N(C3CCC(=O)NC3=O)C4=O)nn2)cc1", "note": "(centres unmarked) [Compound 2]", "values": [{"measurement": "time at which reduction of HDAC6 expression started", "setting": "time-course, MM1S", "value": 30, "unit": "min"}, {"measurement": "time of maximal HDAC6 degradation", "setting": "time-course, MM1S", "value": "around 4 h"}]}, {"smiles": "CCCCN(Cc1ccc(C(=O)NO)cc1)C(=O)Nc1ccc(OCCCCCn2cc(CNc3cccc4c3C(=O)N(C3CCC(=O)NC3=O)C4=O)nn2)cc1", "note": "(centres unmarked) [Compound 12d, 4-((1-butyl-3-(4-((5-(4-(((2-(2,6-dioxopiperidin-3-yl)-1,3-dioxoisoindolin-4-yl)amino)methyl)-1H-1,2,3-triazol-1-yl)pentyl)oxy)phenyl)ureido)methyl)-N-hydroxybenzamide]", "values": [{"measurement": "HDAC6 recovery after wash-out", "setting": "100 nM for 6 h, washed with PBS, monitored within 48 h", "value": "not fully recovered"}, {"measurement": "time at which HDAC6 degradation started", "setting": "100 nM, MM1S", "value": "around 1 h"}, {"measurement": "time of maximal HDAC6 degradation effect", "setting": "100 nM, MM1S", "value": 4, "unit": "h"}, {"measurement": "HDAC6 level on co-treatment with pomalidomide or Next-A", "setting": "[1]", "value": "recovered HDAC6 level"}, {"measurement": "degradation on co-treatment with NAE inhibitor MLN4924", "setting": "[1]", "value": "abolishing the degradation of both HDAC6 and IKZFs"}, {"measurement": "degradation on co-treatment with proteasome inhibitor MG132 or Bortezomib", "setting": "[1]", "value": "no degradation of HDAC6"}, {"measurement": "concentration at which hook effect was observed", "setting": "[2]", "value": "≥ 3", "unit": "µM"}, {"measurement": "concentration of maximal effects on HDAC6", "setting": "[2]", "value": "around 30 nM"}, {"measurement": "lowest concentration reducing HDAC6 protein content", "setting": "[2]", "value": 3, "unit": "nM"}]}, {"smiles": "O=C(CCCCCCC(=O)N/N=C/c1ccc(OCCOCCOCCn2cc(CNc3cccc4c3C(=O)N(C3CCC(=O)NC3=O)C4=O)nn2)cc1)NO", "note": "(centres unmarked) [Compound 1]", "values": [{"measurement": "HDAC6 degradation by western blot", "setting": "10 nM, 6 h, MM1S", "value": "degraded much less HDAC6"}]}, {"smiles": "CCCCN(Cc1ccc(C(=O)NO)cc1)C(=O)Nc1ccc(OCCCCCn2cc(CNc3cccc4c3C(=O)N(C3CCC(=O)N(C)C3=O)C4=O)nn2)cc1", "note": "(centres unmarked) [Compound 15, 4-((1-butyl-3-(4-((5-(4-(((2-(1-methyl-2,6-dioxopiperidin-3-yl)-1,3-dioxoisoindolin-4-yl)amino)methyl)-1H-1,2,3-triazol-1-yl)pentyl)oxy)phenyl)ureido)methyl)-N-hydroxybenzamide]", "values": [{"measurement": "HDAC6 degradation activity of negative controls by western blot", "setting": "MM1S", "value": "inactive"}]}]}
